# Laboratory results as given in patent US7951815B2, “Substituted 1,4,8-triazaspiro [4,5]decan-2-one compounds” (Gruenenthal GmbH, priority 2004, dated 2011).
# Tests used:
# [1] = test system: NA transporter; assay: Inhibition of noradrenaline uptake in rat brain synaptosomes; assay type: biochemical; conditions: Table III
# [2] = test system: batrachotoxin (BTX) binding site of the sodium channel; assay: Affinity to the batrachotoxin (BTX) binding site of the sodium channel; conditions: Table III; rat cerebrocortex synaptosomes; test concentration not given
# [3] = target: T1, 5-HT transporter (Rattus norvegicus, UniProt P31652); assay: Inhibition of 5-HT uptake in rat brain synaptosomes; assay type: biochemical; conditions: Table III, rat, 1 μM; for inhibition at 1 µM: read-out: Uptake 5-HT, % inhibition
# T1 construct: synaptosomes of rat brain areas are freshly isolated; from tissue; host or cells: rat brain synaptosomes (P2 fraction) from marrow and pons
# T1 sequence (P31652 whole entry): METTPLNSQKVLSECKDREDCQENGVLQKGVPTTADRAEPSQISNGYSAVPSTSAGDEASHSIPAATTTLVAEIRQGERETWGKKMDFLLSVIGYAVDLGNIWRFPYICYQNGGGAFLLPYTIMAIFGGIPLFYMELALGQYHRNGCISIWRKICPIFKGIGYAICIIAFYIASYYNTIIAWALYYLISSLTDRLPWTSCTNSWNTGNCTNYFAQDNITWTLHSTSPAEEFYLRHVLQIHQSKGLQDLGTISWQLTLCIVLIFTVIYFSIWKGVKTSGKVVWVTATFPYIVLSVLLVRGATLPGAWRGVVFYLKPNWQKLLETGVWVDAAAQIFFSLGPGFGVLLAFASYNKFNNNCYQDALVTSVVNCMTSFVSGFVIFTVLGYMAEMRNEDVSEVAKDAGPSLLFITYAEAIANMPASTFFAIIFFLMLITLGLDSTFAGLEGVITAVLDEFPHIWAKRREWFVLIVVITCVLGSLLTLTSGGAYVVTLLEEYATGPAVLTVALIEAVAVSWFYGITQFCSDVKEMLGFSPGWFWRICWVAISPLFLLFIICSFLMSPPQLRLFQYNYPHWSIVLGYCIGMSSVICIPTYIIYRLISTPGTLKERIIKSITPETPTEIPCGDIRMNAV
SMILES,"Uptake (NA), rat, 10 μM, % inhibition [1]",BTX inhibition [2],inhibition at 1 µM [3],"Uptake 5-HT, rat, 1 μM, % inhibition [3]"
"CC(C)CC1NC2(CCN(C(=O)c3cccc(N(C)C)c3)CC2)N(Cc2ccccc2C#N)C1=O (stereo not shown) [Example 111, 2-[8-(3-Dimethylaminobenzoyl)-3-isobutyl-2-oxo-1,4,8-triazaspiro[4,5]dec-1-ylmethyl]benzonitrile]",38%,42,58%,–
"C=CCN1C(=O)C(CCSC)NC12CCN(C(=O)c1cccnc1SC)CC2 (stereo not shown) [Example 290, 1-Allyl-3-(2-methylsulfanylethyl)-8-(2-methylsulfanylpyridin-3-carbonyl)-1,4,8-triazaspiro[4,5]decan-2-one]",31%,30,–,–
"C#CCN1C(=O)C(CC(C)C)NC12CCN(C(=O)COc1ccc(Cl)cc1)CC2 (stereo not shown) [Example 104, 8-[2-(4-Chlorophenoxy)acetyl]-3-isobutyl-1-prop-2-ynyl-1,4,8-triazaspiro[4,5]decan-2-one]",36%,41,48%,–
"COCC(=O)N1CCC2(CC1)NC(CCSC)C(=O)N2Cc1cccc(C#N)c1 (stereo not shown) [Example 112, 3-[8-(2-Methoxyacetyl)-3-(2-methylsulfanylethyl)-2-oxo-1,4,8-triazaspiro[4,5]dec-1-ylmethyl]benzonitrile]",42%,–,43%,–
"C#CCN1C(=O)C(Cc2ccccc2)NC12CCN(C(=O)c1c(F)cccc1Cl)CC2 (stereo not shown) [Example 210, 3-Benzyl-8-(2-chloro-6-fluorobenzoyl)-1-prop-2-ynyl-1,4,8-triazaspiro[4,5]decan-2-one]",31%,–,51%,–
"CN(C)c1cccc(C(=O)N2CCC3(CC2)NC(Cc2ccccc2)C(=O)N3Cc2ccccc2)c1 (stereo not shown) [Example 99, 1,3-Dibenzyl-8-(3-dimethylaminobenzoyl)-1,4,8-triazaspiro[4,5]decan-2-one]",42%,66,79%,–
"N#Cc1ccccc1CN1C(=O)CNC12CCN(C(=O)C=Cc1ccccc1Cl)CC2 [Example 89, 2-{8-[3-(2-Chlorophenyl)acryloyl]-2-oxo-1,4,8-triazaspiro[4,5]dec-1-ylmethyl}benzonitrile]",41%,–,43%,–
"CCOC(=O)CN1C(=O)C(CCSC)NC12CCN(C(=O)c1ccc(C(C)(C)C)cc1)CC2 (stereo not shown) [Example 297, Ethyl [8-(4-tert-butylbenzoyl)-3-(2-methylsulfanylethyl)-2-oxo-1,4,8-triazaspiro[4,5]dec-1-yl]acetate]",32%,36,–,–
"CC(C)C1NC2(CCN(C(=O)c3ccncc3)CC2)N(Cc2ccccc2)C1=O (stereo not shown) [Example 98, 1-Benzyl-3-isopropyl-8-(pyridin-4-carbonyl)-1,4,8-triazaspiro[4,5]decan-2-one]",36%,–,57%,–
"CCCC(C)C(=O)N1CCC2(CC1)NCC(=O)N2Cc1ccccc1C#N (stereo not shown) [Example 71, 2-[8-(2-Methylpentanoyl)-2-oxo-1,4,8-triazaspiro[4,5]dec-1-ylmethyl]benzonitrile]",52%,–,53%,–
"O=C(c1ccc2nonc2c1)N1CCC2(CC1)NCC(=O)N2Cc1ccccc1F [Example 304, 8-(Benzo[1,2,5]oxadiazole-5-carbonyl)-1-(2-fluorobenzyl)-1,4,8-triazaspiro[4,5]decan-2-one]",37%,33,34%,–
"CC(C)CC1NC2(CCN(C(=O)c3cccnc3Cl)CC2)N(Cc2ccc(F)cc2)C1=O (stereo not shown) [Example 118, 8-(2-Chloropyridin-3-carbonyl)-1-(4-fluorobenzyl)-3-isobutyl-1,4,8-triazaspiro[4,5]decan-2-one]",30%,44,38%,–
"Cc1onc(-c2c(F)cccc2Cl)c1C(=O)N1CCC2(CC1)NC(=O)C(Cc1ccccc1)N2 (stereo not shown) [Example 115, 3-Benzyl-8-[3-(2-chloro-6-fluorophenyl)-5-methylisoxazole-4-carbonyl]-1,4,8-triazaspiro[4,5]decan-2-one]",34%,–,30%,–
"C=CCN1C(=O)C(C(C)C)NC12CCN(C(=O)c1ccc(-c3ccccc3)cc1)CC2 (stereo not shown) [Example 265, 1-Allyl-8-(biphenyl-4-carbonyl)-3-isopropyl-1,4,8-triazaspiro[4,5]decan-2-one]",32%,34,–,–
"CC(C)C1NC2(CCN(C(=O)c3ccco3)CC2)N(Cc2ccccc2C#N)C1=O (stereo not shown) [Example 103, 2-[8-(Furan-2-carbonyl)-3-isopropyl-2-oxo-1,4,8-triazaspiro[4,5]dec-1-ylmethyl]benzonitrile]",30%,–,34%,–
"CCOC(=O)CCC(=O)N1CCC2(CC1)NCC(=O)N2Cc1ccccc1F [Example 270, Ethyl 4-[1-(2-fluorobenzyl)-2-oxo-1,4,8-triazaspiro[4,5]dec-8-yl]-4-oxo-butanate]",37%,33,31%,–

SMILES,"Uptake (NA), rat, 10 μM, % inhibition [1]",BTX inhibition [2],inhibition at 1 µM [3],"Uptake 5-HT, rat, 1 μM, % inhibition [3]"
"CC(C)C1NC2(CCN(C(=O)c3c(F)cccc3Cl)CC2)NC1=O (stereo not shown) [Example 116, 8-(2-Chloro-6-fluorobenzoyl)-3-isopropyl-1,4,8-triazaspiro[4,5]decan-2-one]",34%,–,37%,–
"CSCCC1NC2(CCN(C(=O)CC3NC(=O)NC3=O)CC2)N(Cc2ccc(F)cc2)C1=O (stereo not shown) [Example 100, 5-{2-[1-(4-Fluorobenzyl)-3-(2-methylsulfanylethyl)-2-oxo-1,4,8-triazaspiro[4,5]dec-8-yl]-2-oxoethyl}imidazolidine-2,4-dione]",32%,–,42%,–
"CCSc1ncccc1C(=O)N1CCC2(CC1)NC(Cc1ccccc1)C(=O)N2C (stereo not shown) [Example 78, 3-Benzyl-8-(2-ethylsulfanylpyridin-3-carbonyl)-1-methyl-1,4,8-triazaspiro[4,5]decan-2-one]",33%,–,56%,–
"C=CCN1C(=O)C(CCSC)NC12CCN(C(=O)CCc1ccccc1)CC2 (stereo not shown) [Example 328, 1-Allyl-3-(2-methylsulfanylethyl)-8-(3-phenylpropionyl)-1,4,8-triazaspiro[4,5]decan-2-one]",33%,–,32%,–
"COc1cc(OC)cc(C(=O)N2CCC3(CC2)NC(=O)C(CC(C)C)N3)c1 (stereo not shown) [Example 92, 8-(3,5-Dimethoxybenzoyl)-3-isobutyl-1,4,8-triazaspiro[4,5]decan-2-one]",30%,–,30%,–
"CSCCC1NC2(CCN(C(=O)c3ccccn3)CC2)N(Cc2ccc(F)cc2)C1=O (stereo not shown) [Example 109, 1-(4-Fluorobenzyl)-3-(2-methylsulfanylethyl)-8-(pyridin-2-carbonyl)-1,4,8-triazaspiro[4,5]decan-2-one]",32%,–,50%,–
"CC(=O)OC(C(=O)N1CCC2(CC1)NC(Cc1ccccc1)C(=O)N2C)c1ccccc1 (stereo not shown) [Example 113, Ethyl 2-(3-benzyl-1-methyl-2-oxo-1,4,8-triazaspiro[4,5]dec-8-yl)-2-oxo-1-phenylacetate]",46%,–,–,35%
"Cc1cc(C(=O)N2CCC3(CC2)NC(CC(C)C)C(=O)N3Cc2c(Cl)cccc2Cl)c(C)o1 (stereo not shown) [Example 295, 1-(2,6-Dichlorobenzyl)-8-(2,5-dimethylfuran-3-carbonyl)-3-isobutyl-1,4,8-triazaspiro[4,5]decan-2-one]",36%,63,–,–
"CCOC(=O)CN1C(=O)C(Cc2ccccc2)NC12CCN(C(=O)c1ccc(S(N)(=O)=O)cc1)CC2 (stereo not shown) [Example 276, Ethyl [3-benzyl-2-oxo-8-(4-sulfamoylbenzoyl)-1,4,8-triazaspiro[4,5]dec-1-yl]acetate]",46%,–,95%,–
"CN1C(=O)C(Cc2ccccc2)NC12CCN(C(=O)COCc1ccccc1)CC2 (stereo not shown) [Example 141, 3-Benzyl-8-(2-benzyloxyacetyl)-1-methyl-1,4,8-triazaspiro[4,5]decan-2-one]",36%,45,–,–
"O=C1NC2(CCN(C(=O)c3ccc4ccccc4c3)CC2)NC1Cc1ccccc1 (stereo not shown) [Example 122, 3-Benzyl-8-(naphthalin-2-carbonyl)-1,4,8-triazaspiro[4,5]decan-2-one]",38%,–,34%,–
"CN1C(=O)C(Cc2ccccc2)NC12CCN(C(=O)CC(C)(C)C)CC2 (stereo not shown) [Example 126, 3-Benzyl-8-(3,3-dimethylbutyryl)-1-methyl-1,4,8-triazaspiro[4,5]decan-2-one]",44%,34,–,–
"CC(C)CC1NC2(CCN(C(=O)c3cccc(Cl)c3)CC2)NC1=O (stereo not shown) [Example 90, 8-(3-Chlorobenzoyl)-3-isobutyl-1,4,8-triazaspiro[4,5]decan-2-one]",35%,–,41%,–
"CCOC(=O)C(C)(C)C(=O)N1CCC2(CC1)NC(CC(C)C)C(=O)N2CCCCOC(C)=O (stereo not shown) [Example 278, Ethyl 2-[1-(4-acetoxybutyl)-3-isobutyl-2-oxo-1,4,8-triazaspiro[4,5]dec-8-yl]-1,1-dimethyl-2-oxo-acetate]",56%,–,–,39%
"Cc1nnsc1C(=O)N1CCC2(CC1)NCC(=O)N2Cc1ccccc1 [Example 88, 1-Benzyl-8-(4-methyl[1,2,3]thiadiazole-5-carbonyl)-1,4,8-triazaspiro[4,5]decan-2-one]",32%,–,34%,–
"CC(C)CC1NC2(CCN(C(=O)c3ccc4c(c3)OCO4)CC2)N(Cc2c(Cl)cccc2Cl)C1=O (stereo not shown) [Example 264, 8-(Benzo[1,3]dioxole-5-carbonyl)-1-(2,6-dichlorobenzyl)-3-isobutyl-1,4,8-triazaspiro[4,5]decan-2-one]",36%,63,–,–
